Among the data in ChEMBL document CHEMBL6092147, “Design of inhibitors of SARS-CoV-2 papain-like protease deriving from GRL0617: Structure-activity relationships” (Bioorg Med Chem, 2024) are IC50, Ki and Kd values, retold here.

Test [1] deals with T1, Replicase polyprotein 1ab (Severe acute respiratory syndrome coronavirus 2, UniProt P0DTD1). The test is described as follows: Inhibition of SARS-CoV-2 wild type PLpro extracted from Escherichia coli Rosetta 2(DE3) cells by fluorescence based analysis.
Test [2] concerns the target T1, Replicase polyprotein 1ab. The test can be described thus: Inhibition of SARS-CoV-2 PLpro using Ubiquitin-AMC as substrate by enzymatic assay.
For test [3], the target named is T1, Replicase polyprotein 1ab. The test is described as follows: Binding affinity to SARS-CoV-2 Main protease assessed as inhibition constant by SPR analysis.
The target in test [4] is T1, Replicase polyprotein 1ab. The test is described as follows: Inhibition of SARS-CoV-2 papain-like protease (PLpro) by enzymatic assay.
Test [5] has as its target T1, Replicase polyprotein 1ab. The test is described as follows: Inhibition of SARS-CoV-2 papain-like protease (PLpro) by FRET analysis.
Test [6] addresses T1, Replicase polyprotein 1ab. The test can be described thus: Inhibition of C-terminal His-tagged SARS-CoV-2 papain-like protease (PLpro) (1564 to 1876 residues) extracted from Escherichia coli BL21 (DE3) cells using Dabcyl-KTSAVLQ/SGFRKME as substrate incubated for 60 mins by FRET assay.
In test [7] the target is T1, Replicase polyprotein 1ab. The test can be described thus: Inhibition of SARS-CoV-2 wild type PLpro (1563 to 1878 residues) extracted from Escherichia coli Rosetta 2 (DE3) cells by Fluorescence polarization assay.
Test [8] concerns the target T1, Replicase polyprotein 1ab. The test is described as follows: Inhibition of N-terminal 6-His-tagged SARS-CoV-2 PLpro BetaCoV/Wuhan/WIV04/2019 (1524 to 1883 residues) extracted from Escherichia coli BL21 (DE3) cells using Dabcyl-KTSAVLQ/SGFRKME as substrate pretreated for 30 mins followed by substrate addition measured for 1 hr by TR-FRET analysis.
In test [9] the target is T1, Replicase polyprotein 1ab. The test is described as follows: Inhibition of His-tagged SARS-CoV-2 papain-like protease (PLpro) incubated for 30 mins by FRET assay.
The target in test [10] is T1, Replicase polyprotein 1ab. The test is described as follows: Inhibition of N-terminal 6His-tagged SARS-CoV-2 wild type PLpro extracted from Escherichia coli BL21 (DE3) cells incubated for 60 mins by FRET assay.
Test [11] has as its target T1, Replicase polyprotein 1ab. The test is described as follows: Binding affinity to SARS-CoV-2 3CL protease assessed as dissociation constant by SPR analysis.
Test [12] has as its target T1, Replicase polyprotein 1ab. The test is described as follows: Inhibition of SARS-CoV-2 3CL protease by FRET assay.
Test [13] has as its target T1, Replicase polyprotein 1ab. The test can be described thus: Inhibition of SARS-CoV-2 3CL protease extracted from Escherichia coli BL21 (DE3) Rosetta cells using DabcylKNSTLQSGLRKE-Edan as substrate preincubated for 60 mins followed by substrate addition and measured after 20 mins by FRET assay.
Test [14] concerns the target T1, Replicase polyprotein 1ab. The test is described as follows: Binding affinity to SARS-CoV-2 3CL protease extracted from Escherichia coli BL21 (DE3) Rosetta cells assessed as dissociation constant.

The structures appear in SMILES notation. Some results are limits rather than exact numbers.

The compound `C[C@H](c1cccc2ccccc12)N1CCC(C(=O)NCc2cc(F)cc(NC(=O)N3CCN(C)CC3)c2)CC1` yielded a half-maximal inhibitory concentration (IC50) in [1] of 990 nM.
In [2], `Cc1ccc(N)cc1CN[C@H](C)c1cccc2ccccc12` had an IC50 of 41.1 µM.
Turning to `CCn1ccc(-c2cc(-c3cnn(CCOC)c3)cc([C@@H](C)NC(=O)c3cc(OCCN(C)C)ccc3C)c2)n1`, the Ki in [3] worked out at 30 nM. The same compound gave a concentration for half-maximal inhibition (IC50) in [4] of 160 nM.
For `CC(=O)Nc1ccc(C)c(C(=O)NC(C)c2cccc3ccccc23)c1` (stereo unspecified), the IC50 in [2] turned out to be 11 µM.
Consider `Cc1ccc(OCCN(C)C)cc1C(=O)N[C@H](C)c1cc(-c2cnn(C)c2)cc(-c2cnn(C)c2)c1`, for which, in test [3], the inhibition constant Ki was 30 nM.
Compound `Cc1ccc(OCCN(C)C)cc1C(=O)N[C@H](C)c1cc(-c2cccs2)cc(-c2cccs2)c1` came in with a concentration for half-maximal inhibition (IC50) in test [5] of 60 nM. Besides, the inhibitory constant (Ki) in [3] amounted to 10 nM.
Compound `C[C@H](c1cccc2ccccc12)N(C)Cc1ccc2cccc(O)c2n1` yielded a concentration for half-maximal inhibition (IC50) in test [6] of more than 20 µM.
In turn, `COc1cc(CNC(=O)C2CC3(C2)CN([C@H](C)c2cccc4ccccc24)C3)ccn1` displayed an IC50 in test [7] of 5.4 µM.
As for `C[C@H](c1cccc2ccccc12)N1CCC(C(=O)NCc2ccc(S(N)(=O)=O)cc2)CC1`, the IC50 in test [8] amounted to 600 nM.
Take `C[C@H](c1cccc2ccccc12)N(C)Cc1ccc(OCC(N)=O)cc1`: the half-maximal inhibitory concentration (IC50) in [9] turned out to be 2840 nM.
For the compound `COc1cc(CNC(=O)C2CCN(C(C)c3cccc4ccccc34)CC2)ccn1` (racemic), the IC50 in test [7] is 1.1 µM.
For `CCOc1ccc2ccccc2c1C(C)N1CCC(C(=O)NCc2ccnc(OC)c2)CC1` (racemic), the IC50 in test [10] is more than 98 µM.
Take `COc1cc(CNC(=O)C2CN(C(C)c3cccc4ccccc34)C2)ccn1` (racemic): it took 27.3 µM to reach half-maximal inhibition in test [7] (IC50).
For `CCC(C(=O)Nc1cc(NC2CCNCC2)ccc1C)n1cc(Br)cc2nc(SCc3ccc(F)cc3)nc1-2` (racemic), in test [11], the Kd was determined as 170 nM. In test [12], this compound yielded an IC50 of 50 nM.
Regarding `CCC(C(=O)Nc1cc(NC2CNC2)ccc1C)n1cc(Cl)cc2nc(SCc3ccc(F)cc3)nc1-2` (racemic), the equilibrium dissociation constant (Kd) in test [11] was found to be 100 nM. For the same compound, in [12], the IC50 was found to be 90 nM.
Taken in the same sequence, the figures for `CCC(C(=O)Nc1cc(NC2CCNC2)ccc1C)n1cc(Cl)cc2nc(SCc3ccc(F)cc3)nc1-2` (racemic) were 100 nM and 70 nM.
With `CCC(C(=O)Nc1cc(NC2CNC2)ccc1C)n1cc(Br)cc2nc(SCc3ccc(F)cc3)nc1-2` (racemic), in test [11], the dissociation constant (Kd) is 100 nM. In addition, in test [12], the IC50 stood at 70 nM.
For the compound `COc1cc(CNC(=O)C2CCN(C(C)c3c(OC)ccc4ccccc34)CC2)ccn1` (racemic), the IC50 in test [10] was more than 98 µM.
On to `CCC(C(=O)Nc1cc(NC2COC2)ccc1C)n1cc(F)cc2nc(SCc3ccc(F)cc3)nc1-2` (racemic), for which half-maximal inhibition in test [13] (IC50) required 400 nM. Moreover, the dissociation constant Kd in [14] is 400 nM.
In turn, `COc1cc(CNC(=O)C2CCN(C(C)c3c(C)sc4ccccc34)CC2)ccn1` (racemic) registered a concentration for half-maximal inhibition (IC50) in test [10] of more than 98 µM.
As for `CCC(C(=O)Nc1cc(NC2CNC2)ccc1C)n1cc(F)cc2nc(SCc3ccc(F)cc3)nc1-2` (racemic), in test [11], the Kd amounted to 270 nM. In test [12], this compound came in with an IC50 of 200 nM.
`CCC(C(=O)Nc1cc(NC2CCOC2)ccc1C)n1cc(Br)cc2nc(SCc3ccc(F)cc3)nc1-2` (racemic) showed a half-inhibitory concentration (IC50) in test [13] of 500 nM. The dissociation constant Kd in test [14] is 1400 nM.
